This note sets out measurements from patent US7442513B2, “Method of screening for agents that modulate a homer signaling pathway” (The Johns Hopkins University, priority 2003, dated 2008).

The subject of assay [1] is mGluR5 binding to Homer. Description: mGluR5 binding to GST-Homer after treating mGluR5-expressing HEK293 cells with PPIase inhibitors (pull-down, western blot). Type of assay: cell-based. Conditions: for effect on mGluR5 binding to GST-Homer: HEK293 cells expressing mGluR5, 1 micromolar in medium, differing intervals. The procedure: HEK293 cells were transfected with pRK5-mGluR5. 1 micromolar FK506 was added to the medium for differing intervals prior to harvesting and preparation of lysates in the indicated buffer, which include inhibitors of phosphatases and proteases. Lysates were mixed with glutathione agarose beads loaded with GST-Homer 3 EVH1 domain for 1 hr at 4 C. mGluR5 that bound to Homer was then analyzed by western blot. Lysates were also assayed to confirm expression of mGluR5 (lower panel). Note the increase in mGluR5 that binds to Homer from lysates of cells treated for 3 hrs or longer with FK506.
If PPIases regulate the conformational state of the mGluR5, it was anticipated that PPIase inhibitors would alter the ability of the mGluR5 to bind to Homer. To examine this hypothesis, Homer was expressed as a bacterial fusion protein with glutathione S-transferase (GST) and loaded the protein on a glutathione agarose bead. These binding assays are identical to those used previously to document the ligand consensus sequence in mGluR5 (Tu et al., 1998), and for analysis of the binding surfaces of Homer (Beneken et al., 2000).
Cells were treated for different times with PPIase inhibitors and then harvested in buffer containing protease and phosphatase inhibitors and 1% Triton detergent. Soluble lysates were then mixed with beads loaded with GST-Homer incubated for 1 hr at 4° C., washed several times and proteins eluted with SDS loading buffer. […] Increased binding was detected by 3 hrs and remained elevated for 24 hrs.
On the technique in general: A western blot detects proteins with antibodies after separation by electrophoresis.

In assay [2] the target is T1, TrpC1 binding to GST-FKBP52 (Homo sapiens, UniProt Q02790).
T1 construct: expressed in transfected cells; host or cells: HEK293 cell lysate (TrpC1)
T1 sequence (Q02790 1-459): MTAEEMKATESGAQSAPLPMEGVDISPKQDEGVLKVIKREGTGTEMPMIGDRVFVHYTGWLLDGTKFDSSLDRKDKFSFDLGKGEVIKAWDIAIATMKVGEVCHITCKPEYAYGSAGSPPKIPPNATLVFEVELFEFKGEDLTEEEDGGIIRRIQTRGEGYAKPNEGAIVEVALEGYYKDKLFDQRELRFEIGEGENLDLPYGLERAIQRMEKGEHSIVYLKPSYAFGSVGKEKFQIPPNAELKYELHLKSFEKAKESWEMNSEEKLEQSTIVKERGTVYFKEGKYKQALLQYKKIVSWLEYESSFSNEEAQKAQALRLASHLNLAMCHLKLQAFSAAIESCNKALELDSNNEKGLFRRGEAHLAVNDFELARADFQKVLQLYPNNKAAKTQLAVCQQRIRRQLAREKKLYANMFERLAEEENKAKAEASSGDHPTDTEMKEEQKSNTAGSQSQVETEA
The assay is described as follows: TrpC1 binding to GST-FKBP52 after pretreating cell lysates with PPIase inhibitors. An excerpt:
To further test this hypothesis, the binding of TrpC1 to GST-FKBP12 or GST-FKBP52 was examined. Also, the effect of pretreating cell lysates with FK506, GPI-1046, cyclosporin A or the control agent aniracetam (structurally similar to GPI-1946) was examined. The notion being that dissociation of endogenous FKBP would increase the availability of TrpC1 to bind GST-FKBP in vitro. The FK506 might also be expected to bind to GST-FKBP but because this protein is highly concentrated on the bead and is in vast excess to cellular FKBP, the net consequence of drug treatment would be increased binding of TrpC1 to GST-FKBP. In these assays, TrpC1 bound to FKBP52 (FIG. 15), but not to FKBP12. Binding of TrpC1 to GST-FKBP52 was increased by treatment with both FK506 and GPI1046. The effect of these agents was particularly robust for the dimeric TrpC1 species and was detected with 100 nM FK506 or GPI1046. These studies confirmed that TrpC1 is bound by Homer and FKBP52, and that treatment of cell lysates or cells with drugs that inhibit rotamase activity and dissociate rotamases from their target proteins, result in enhanced binding of TrpC1 to both Homer (FIG. 14) and FKBP52 (FIG. 15).

The test system of assay [3] is TrpC1 binding to Homer. Description: TrpC1 binding to GSTHomer after treating lysates of TrpC1-expressing HEK293 cells. The following applies: for effect on TrpC1 binding to Homer: lysates treated with indicated concentrations. Here is the method: TrpC1 was transiently expressed in HEK293 cells and lysates were treated with the indicated concentrations of FK506, GPI1046, cyclosporin A or aniracetam (negative control) and assayed for TrpC1 binding to GSTHomer. TrpC1 migrates as both a monomer and dimer. Note that FK506, GPI1046 and cyclosporin A (but not aniracetam) treatment results in increased TrpC1 binding to Homer.

Assay [4] has as its system TrpC1 binding to Homer1EVH1. Description: TrpC1 binding to GST-Homer1 EVH1 after treating TrpC1-expressing HEK293 cells with FK506. Type of assay: cell-based. Conditions: 150 nM. Here is the method:
HEK293 cells that transiently express TrpC1 were treated with FK506 for indicted time prior to preparation of lysates and binding to GST-Homer. Note that FK506 treatment increases TrpC1 binding to Homer.
An observation from the Homer-TrpC1 binding data remained enigmatic. […] Additionally, certain point mutants of the C-terminal Homer ligand increase binding to Homer. […] The possibility that an FKBP homologue might bind mammalian TrpC1 and impact the binding of Homer was explored. As a first test of this hypothesis, the consequence of treating cells expressing TrpC1 with FK506, and then testing TrpC1 binding to GST-Homer was examined. HEK293 cells were transfected with wt TrpC1 and treated with 150 nM FK506 for times ranging from 15 min to 24 hrs. Cells lysates were prepared in 1% Triton and mixed with GST-Homer1 EVH1 and bound TrpC1 assayed by western blot. Lysates were also assayed to compare expression in each of the samples. […] This effect was detected as early as 30 min after addition of FK506 and persisted for 24 hrs. A peak of increased binding appeared at ˜6hrs. […] It was concluded that FK506 increases the binding of TrpC1 to Homer at a dose that is known to the relevant for FKBP.

Setting [5] is: 1 micromolar, HEK293 cells expressing mGluR5.

On to `CCC(C)(C)C(=O)C(=O)N1CCC[C@H]1C(=O)OCCCc1cccnc1` [GPI1046], for which the “mGluR5 binding after 12 or 24 hrs of treatment” value in assay [1] (1 micromolar, 12 or 24 hrs) was “decreased”. In addition, in assay [1] (1 micromolar, HEK293 cells), the “effect on expression of mGluR5 in lysates” value is “did not significantly alter”. For the same compound, in assay [1] (setting [5]), the “treatment time of peak mGluR5 binding” value was no more than 3 h. For the same compound, the “treatment time within which mGluR5 binding increased” value in assay [1] (setting [5]) was no more than 30 min. Further, the “effect on mGluR5 binding to GST-Homer” value in assay [1] is recorded as “time-dependent increase”; in assay [1] (listed as GPI 1046) it was “effective in increasing”. Further, in assay [2] (dimeric TrpC1 species, pretreated lysates), the “concentration at which increased TrpC1 binding to GST-FKBP52 was detected” value is on record as 100 nM. Moreover, the “effect on binding of TrpC1 to GST-FKBP52” value in assay [2] (pretreated cell lysates) is given as “increased”. The “effect on TrpC1 binding to Homer at 10 nM” value in assay [3] (10 nM) is “potent enhancement”. Moreover, the “effect on TrpC1 binding to Homer with higher doses or longer times” value in assay [3] (doses higher than 10 nM or longer times) was “decreases”. Also, the “effect on TrpC1 binding to Homer” value in assay [3] was “increased”; in assay [3] (listed as GPI 1046), “enhanced”.

As for `COc1ccc(C(=O)N2CCCC2=O)cc1` [aniracetam], the “effect on TrpC1 binding to Homer” value in assay [3] is on record as “not”.

With `C=CC[C@@H]1/C=C(\C)C[C@H](C)C[C@H](OC)[C@H]2O[C@@](O)(C(=O)C(=O)N3CCCC[C@H]3C(=O)O[C@H](/C(C)=C/[C@@H]3CC[C@@H](O)[C@H](OC)C3)[C@H](C)[C@@H](O)CC1=O)[C@H](C)C[C@@H]2OC` [FK506], the “time for which mGluR5 binding remained elevated” value in assay [1] (setting [5]) was determined as 24 h. Also, in assay [4], the “earliest time at which increased TrpC1 binding was detected” value is 30 min, the “time for which increased TrpC1 binding persisted” value amounted to 24 h and the “time of peak of increased TrpC1 binding” value was roughly 6 h.
